Experimental data published in patent publication US12053451B2, “Arginase inhibitors and their therapeutic applications” (OncoArendi Therapeutics S.A., priority 2016, dated 2024).
Structures can show the parent of a compound that is named as a salt. Each block holds one compound with its values, some of them ahead of it.

Columns and labels:
[1] = target: T1, intracellular arginase in macrophages isolated from murine bone marrow (BMDM) (Mus musculus, UniProt Q61176); assay: Cell-based assay: intracellular arginase in bone marrow derived macrophages (BMDM), urea level; parameters: species or system Balb/c mice; settings: murine BMDM with M-CSF and IL-4, urea measured 24 hours after compound; * = most potent diastereoisomer or mixture of diastereoisomers; read-out: Activity Class (BMDM)
T1 construct: endogenous in cells; host or cells: primary bone marrow derived macrophages from Balb/c mice, M-CSF and IL-4 treated
T1 sequence (Q61176 1-323): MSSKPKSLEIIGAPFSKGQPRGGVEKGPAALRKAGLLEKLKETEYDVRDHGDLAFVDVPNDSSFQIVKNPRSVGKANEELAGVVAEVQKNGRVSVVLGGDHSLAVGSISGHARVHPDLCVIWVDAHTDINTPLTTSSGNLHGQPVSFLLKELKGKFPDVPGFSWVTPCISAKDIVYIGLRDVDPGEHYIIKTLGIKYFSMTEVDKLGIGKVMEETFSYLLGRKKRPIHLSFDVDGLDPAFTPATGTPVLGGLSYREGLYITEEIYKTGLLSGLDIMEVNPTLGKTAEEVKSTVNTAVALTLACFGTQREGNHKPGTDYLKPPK
Method: Efficacy of Selected Examples Towards Intracellular Arginase in Macrophages Isolated from Murine Bone Marrow—Bone Marrow Derived Macrophages (BMDM)
Materials & Methods: The assay was performed according to modified literature protocol modification (Pineda-Torra I et al., Methods Mol Biol. 2015; 1339:101-9. Mia S et al. Scand J Immunol. 2014 May; 79(5):305-14). The femurs and tibias were isolated from Balb/c mice. Bones were cleaned from all attached tissues by using sterile swab without affecting the bone structure. Bones were sterilized by immersion in 70% ethanol for 5 min and then rinsed in PBS. The sides of the bones were cut off and flush with cold sterile PBS by using 26-G needle S into a 50 mL sterile tube with a cell strainer (Falcon™, Cat. No. U00149), until bone cavity appeared white. Then the cells were centrifuged (5 min at 500×G, 4° C.), washed twice with PBS and counted. Cells were plated in Petri dish in density of 1×10^6/mL and cultured in DMEM (Gibco, Cat. No. 31331-029) with 10% FBS, 1% pen-strep and 50 ng/mL M-CSF (PeproTech, Cat. No. 315-02), (37° C., 5% CO2). After five days cells were subcultured into P96 plate (BD, Cat. No. 353072) in density of 64 000 cells/well in medium supplemented with 50 ng/mL M-CSF and 20 ng/mL IL-4 (Biomibo Cat. No. 214-1). One day later exemplary compounds (dissolved in PBS) were added in several different concentrations and 24 hours later the level of urea was measured in each well (Jung D et al., Clin Chem. 1975, 21(8):1136-40). The concentration of urea in the absence of any compound was considered as the maximum. The absorbance of cell culture media (background) was subtracted from all the values.
For selected examples the activity class for ARG2 was estimated based on % of inhibition for 1 μM and 100 μM concentration of tested compounds.

[2] = target: T2, recombinant human arginase 1 (Homo sapiens, UniProt P05089); assay: Human arginase activity assay (urea measurement), arginase 1; assay type: biochemical; settings: recombinant human arginase 1, pH 7.4, 37° C., 60 min; * = value for the most potent diastereoisomer or the mixture of diastereoisomers; read-out: Activity Class (ARG I)
T2 construct: purchased Biolegend 552502
T2 sequence (P05089 1-322): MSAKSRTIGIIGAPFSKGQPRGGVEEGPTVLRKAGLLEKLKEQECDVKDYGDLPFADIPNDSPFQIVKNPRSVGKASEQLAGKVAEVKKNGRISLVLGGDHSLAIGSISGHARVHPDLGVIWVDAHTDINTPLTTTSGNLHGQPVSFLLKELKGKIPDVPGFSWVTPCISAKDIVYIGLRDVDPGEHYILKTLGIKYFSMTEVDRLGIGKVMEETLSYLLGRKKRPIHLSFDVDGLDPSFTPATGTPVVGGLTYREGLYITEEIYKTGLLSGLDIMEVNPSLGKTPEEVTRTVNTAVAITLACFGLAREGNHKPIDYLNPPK
How it was run: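 Arginase activity was measured as urea formed from L-arginine over 60 min at 37 °C. Reaction stopped with oPA/NED acidic reagent and absorbance read at 530 nm after 20 min colour development. Values were background-subtracted and normalised to no-compound activity, and IC50 was derived from percent-inhibition concentration-response regression.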

[3] = target: T3, recombinant human arginase 2 (Homo sapiens, UniProt P78540); assay: Human arginase activity assay (urea measurement), arginase 2; assay type: biochemical; settings: for selected examples class estimated from % of inhibition at 1 μM and 100 μM, * = most potent diastereoisomer or mixture of diastereoisomers, read-out: Activity Class (ARG II)
T3 construct: made in house; host or cells: CHO
T3 sequence (P78540 23-354): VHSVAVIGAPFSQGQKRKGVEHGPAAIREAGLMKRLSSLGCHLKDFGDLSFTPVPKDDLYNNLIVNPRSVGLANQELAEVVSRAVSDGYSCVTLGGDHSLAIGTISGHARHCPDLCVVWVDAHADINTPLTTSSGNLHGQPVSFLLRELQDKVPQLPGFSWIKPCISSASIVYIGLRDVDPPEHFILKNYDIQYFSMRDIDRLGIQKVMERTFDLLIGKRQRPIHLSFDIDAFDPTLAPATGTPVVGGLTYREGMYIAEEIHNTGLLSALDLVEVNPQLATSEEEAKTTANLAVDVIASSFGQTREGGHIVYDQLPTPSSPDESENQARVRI
How it was run: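 Recombinant CHO-expressed human arginase 2 converted 20 mM L-arginine with 150 μM MnCl2 in phosphate buffer pH 7.4 for 60 min at 37 °C. Urea was measured colorimetrically at 530 nm after background subtraction, and IC50 fitted. Some compounds were classed by % inhibition at 1 μM and 100 μM.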

Structure (SMILES): N[C@@](CCCCB(O)O)(C(=O)O)C1CCN(Cc2ccc(Cl)c(Cl)c2)CC1 [Comparative example 3, reference compound]
- IC50 [1]: 1000 to 10000 nM
- IC50 [2]: 1 to 100 nM
- IC50 [3]: 100 to 1000 nM

Structure (SMILES): NCC1CCC(CCB(O)O)CC1(N)C(=O)O (stereo not drawn) [Example 24, 1-Amino-2-(aminomethyl)-5-(2-boronoethyl)cyclohexane-1-carboxylic acid]
- IC50 [1]: 10000 to 100000 nM
- IC50 [2]: 1 to 100 nM
- IC50 [3]: 100 to 1000 nM

Structure (SMILES): CC1(O)CCC(CCB(O)O)CC1(N)C(=O)O (stereo not drawn) [Example 50, 1-amino-5-(2-boronoethyl)-2-hydroxy-2-methylcyclohexanecarboxylic acid hydrochloride]
- IC50 [1]: 10000 to 100000 nM
- IC50 [2]: 100 to 1000 nM
- IC50 [3]: 100 to 1000 nM

Structure (SMILES): NC1(C(=O)O)CC(CCB(O)O)CC=C1Cc1ccc(Cl)cc1 (stereo not drawn) [Example 53, 1-amino-5-(2-boronoethyl)-2-(4-chlorobenzyl)cyclohex-2-enecarboxylic acid hydrochloride]
- IC50 [1]: 1000 to 10000 nM
- IC50 [2]: 100 to 1000 nM
- IC50 [3]: 1000 to 10000 nM

Structure (SMILES): NC1CC(CCB(O)O)CC(N)(C(=O)O)C1 (stereo not drawn) [Example 56, 1,3-diamino-5-(2-boronoethyl)cyclohexanecarboxylic acid dihydrochloride]
- IC50 [1]: > 100000 nM
- IC50 [2]: 1000 to 10000 nM
- IC50 [3]: 100 to 1000 nM

Structure (SMILES): NC1CC(CCB(O)O)CC1(N)C(=O)O (stereo not drawn) [Example 62, 1,2-diamino-4-(2-boronoethyl)cyclopentanecarboxylic acid dihydrochloride]
- IC50 [1]: 10000 to 100000 nM
- IC50 [2]: 1000 to 10000 nM
- IC50 [3]: 100 to 1000 nM

Structure (SMILES): CN(C)C1CC(CCB(O)O)CC(N)(C(=O)O)C1 (stereo not drawn) [Example 65, 1-amino-3-(2-boronoethyl)-5-(dimethylamino)cyclohexane-1-carboxylic acid dihydrochloride]
- IC50 [1]: > 100000 nM
- IC50 [2]: 10000 to 100000 nM
- IC50 [3]: 10000 to 100000 nM

Now from value to compound:

- IC50 [1]: 1 to 100 nM
- IC50 [2]: 1 to 100 nM
- IC50 [3]: 1 to 100 nM
Structure (SMILES): CN(C)C[C@@H]1CC[C@@H](CCB(O)O)C[C@]1(N)C(=O)O [Example 38, (1R,2S,5R)-1-amino-5-(2-boronoethyl)-2-((dimethylamino)methyl)cyclohexanecarboxylic acid]

- IC50 [1]: 100 to 1000 nM
- IC50 [2]: 1 to 100 nM
- IC50 [3]: 1 to 100 nM
Structure (SMILES): CNC[C@@H]1CC[C@@H](CCB(O)O)C[C@]1(N)C(=O)O [Example 39, (1R,2S,5R)-1-amino-5-(2-boronoethyl)-2-((methylamino)methyl)cyclohexanecarboxylic acid dihydrochloride]

- IC50 [1]: 1 to 100 nM
- IC50 [2]: 1 to 100 nM
- IC50 [3]: 1 to 100 nM
Structure (SMILES): CN(C)C[C@@H]1CC[C@@H](CCB2O[C@H]3C[C@H]4C[C@H](C4(C)C)[C@@]3(C)O2)C[C@]1(N)C(=O)O [Example 44, (1R,2S,5R)-1-amino-2-((dimethylamino)methyl)-5-(2-((3aR,4R,6R,7aS)-3a,5,5-trimethylhexahydro-4,6-methanobenzo[d][1,3,2]dioxaborol-2-yl)ethyl)cyclohexane-1-carboxylic acid dihydrochloride]

- IC50 [1]: 1 to 100 nM
- IC50 [2]: 1 to 100 nM
- IC50 [3]: 100 to 1000 nM
Structure (SMILES): CC1(C)[C@H]2C[C@@H]3OB(CC[C@@H]4CC[C@@H](CN5CCCC5)[C@@](N)(C(=O)O)C4)O[C@]3(C)[C@@H]1C2 [Example 45, (1R,2S,5R)-1-amino-2-(pyrrolidin-1-ylmethyl)-5-(2-((3aR,4R,6R,7aS)-3a,5,5-trimethylhexahydro-4,6-methanobenzo[d][1,3,2]dioxaborol-2-yl)ethyl)cyclohexanecarboxylic acid dihydrochloride]

- IC50 [1]: 100 to 1000 nM
- IC50 [2]: 1 to 100 nM
- IC50 [3]: 1 to 100 nM
Structure (SMILES): NC1(C(=O)O)C[C@H](CCB(O)O)CCC1CCN1CCCC1 (stereo partly drawn) [Example 46, (5R)-1-amino-5-(2-boronoethyl)-2-(2-(pyrrolidin-1-yl)ethyl)cyclohexanecarboxylic acid dihydrochloride]

- IC50 [1]: 100 to 1000 nM
- IC50 [2]: 1 to 100 nM
- IC50 [3]: 1 to 100 nM
Structure (SMILES): CCN(C)C[C@@H]1CC[C@@H](CCB(O)O)C[C@]1(N)C(=O)O [Example 69, (1R,2S,5R)-1-amino-5-(2-boronoethyl)-2-((ethyl(methyl)amino)methyl)cyclohexane-1-carboxylic acid]

- IC50 [1]: 1 to 100 nM
- IC50 [2]: 1 to 100 nM
- IC50 [3]: 100 to 1000 nM
Structure (SMILES): N[C@]1(C(=O)O)C[C@H](CCB(O)O)CC[C@H]1CN1CCCCC1 [Example 70, (1R,2S,5R)-1-amino-5-(2-boronoethyl)-2-(piperidin-1-ylmethyl)cyclohexane-1-carboxylic acid]

- IC50 [1]: 1 to 100 nM
- IC50 [2]: 1 to 100 nM
- IC50 [3]: 1 to 100 nM
Structure (SMILES): N[C@]1(C(=O)O)C[C@H](CCB(O)O)CC[C@H]1CN1CCCC1 [Example 71, (1R,2S,5R)-1-amino-5-(2-boronoethyl)-2-(pyrrolidin-1-ylmethyl)cyclohexane-1-carboxylic acid]
